{"source": "patent US9603852B2", "about": "“Treatment of obesity and pulmonary arterial hypertension” (ALBERT EINSTEIN COLLEGE OF MEDICINE, INC., priority 2013, dated 2017)", "key": {"C57BL6/J mice [1]": {"system": "C57BL6/J mice", "experiment": "High fat diet induced body weight gain, food and water intake in mice", "format": "in vivo", "conditions": "WT C57BL6 mice on HFD, 0.2 mM in drinking water", "method": "CD and HFD were purchased from Purina LabDiet (Framingham, Mass.), and Research Diets (New Brunswick, N.J.), respectively. PGT global knockout (KO) mice were fed with HFD at 5-6 weeks of age. Simultaneously, WT-CD, WT-HFD, and PGTKO-HFD mice were treated with vehicle (0.4% DMSO+0.4% cremophore) or 0.2 mM Compound 146 from Table 1. To prepare Compound 146 solution, Compound 146 was dissolved in 100% DMSO at a concentration of 50 mM. Two mL of either DMSO or 50 mM Compound 146 were transferred into 500 mL drinking water; 2 mL cremophore were added into the mixture. The mixture was homogenous. Mice were housed individually and fed with CD or HFD, and water (with or without Compound 146) ad libitum. Food and water intakes and body weight were recorded every other day."}, "C57BL6/J mice [2]": {"system": "C57BL6/J mice", "experiment": "Glucose tolerance test in HFD-fed mice", "format": "in vivo", "conditions": "mice on HFD, 0.2 mM in drinking water for 67 days; glucose 2 g/kg i.p. after 12 h fast", "method": "Glucose intolerance is often associated with obesity and HFD causes glucose intolerance. Mice were fasted for 12 hours. Glucose was injected intraperitoneally (20% glucose in saline, 2 g/kg body weight), and plasma glucose levels were measured at various time points by tail cut."}, "Sprague-Dawley rats [3]": {"system": "Sprague-Dawley rats", "experiment": "Tolerability with twice daily injections in the naive rodent", "format": "in vivo", "conditions": "7 days", "method": "In the first arm of the project, the tolerability of compounds was assessed with twice daily (b.i.d) injections in the naive rodent. Following one week of acclimatization to the UNM housing environments, rats at this time weighing approximately 200-225 g were randomly assigned to either receive a 50 mg/kg injection b.i.d. of Compound 146 (n=4) or an equivalent weight-based volume of vehicle (Cremophor-NMP) b.i.d. (n=4). Rats received test article or saline for a total of 7 consecutive days. Blood draws were conducted immediately before the 2nd day of injections, before the 4th day, before the 6th day, and at sacrifice. Body weights were obtained at the same times as the blood draws. On the 7th day, blood from both cohorts was collected via cardiac puncture while under anesthesia. Lungs, heart, liver and kidney were collected and snap frozen in liquid nitrogen for post-mortem bioassays."}, "Sprague-Dawley rats [4]": {"system": "Sprague-Dawley rats", "experiment": "Rat monocrotaline (MCT) model of pulmonary arterial hypertension", "format": "in vivo", "conditions": "for Deaths/Total N: 21 days", "method": "Monocrotaline (MCT) (Sigma-Aldrich) was formulated by standardized procedures, by first dissolving in an acidic solution (HCl), diluting with distilled H2O, then raising the pH to physiological levels (7.35-7.45) with NaOH. MCT (60 mg/kg) or a volume-matched saline solution was injected intraperitoneally once at the beginning of the study. Body weights were collected on day 0, 5, 7, 11, 14, 18, and 21.\nMCT and saline-injected rats (Day 1) were equally and randomly assigned to receive either vehicle (Cremophor-NMP), low dose Compound 146 or high dose Compound 146 via subcutaneous injections (Days 1-21). Injections were administered subcutaneously at 12 hour intervals throughout the study (actual range was 10-14 h).\nAfter 21 days of twice daily subq injections of either vehicle or two concentrations of Compound 146, rats were anesthetized (1.5-2.5% isoflurane; […]), shaved and positioned in dorsal recumbence. Anesthesia was maintained at an appropriate depth, with a target heart rate of ˜350 bpm to ensure minimal cardio-depressant effects during collection of RVSP.\nUpon absent deep pain reflex, a thoracotomy was performed to reveal the right ventricle and a fluid-filled catheter was inserted beyond the right ventricular free wall to permit recording of right ventricular hemodynamics (ADI Instruments). A digital trace of 10-30 seconds was obtained from which to derive right ventricular diastolic, mean, and systolic pressures, along with heart rate and related hemodynamic measures. Blood was then drawn via cardiac puncture and centrifuged to obtain EDTA plasma. Hearts were removed and the right ventricle dissected free from the septal wall. Each piece was weighed and reported as RV/LV+S. Tissues (plasma, heart, and lung) were excised and frozen in liquid nitrogen for later biochemical analysis. Additionally, kidneys and liver were snap frozen and stored for subsequent analysis.\nAnimals were examined twice per day (morning and evening) on each day of the study. Examinations focused on (1) identifying dead, weak, or moribund animals, and (2) documenting the onset and progression of any abnormal clinical signs, especially dermal lesions. Animals found dead were necropsied as soon as possible; for those subjects RV/LVS weight ratios were obtained, but no other parameters were collected.\nAll data were analyzed by a one-way ANOVA with Newman-Keuls post-hoc multiple comparison test. Probability values less than 0.05 were accepted as significant. Normality of distribution was assumed but for all data sets. All data were analyzed with GraphPad Prism v5.02."}, "rat PGT": {"biological_target": "T1, rat PGT (Rattus norvegicus, UniProt Q00910)", "T1 construct": "expressed in transfected cells", "conditions": "cited from earlier work"}}, "data": [{"smiles": "O=C(NCCOCCOCCNc1nc(Nc2ccc(C(=O)NCc3ccc(F)cc3)cc2)nc(Nc2ccc(O)c(C(=O)O)c2)n1)c1ccccc1", "note": "[Compound 146]", "values": [{"measurement": "HFD induced body weight gain", "setting": "C57BL6/J mice [1]", "value": "blunted HFD induced weight gain"}, {"measurement": "HFD induced glucose intolerance (glucose tolerance test)", "setting": "C57BL6/J mice [2]", "value": "improved HFD induced glucose intolerance"}, {"measurement": "cutaneous lesion diameter close to injection sites", "setting": "Sprague-Dawley rats [3]; 2 rats of the 50 mg/kg b.i.d. group that did not gain weight", "value": "1.5-2.0 cm"}, {"measurement": "body weight growth (tolerability)", "setting": "Sprague-Dawley rats [3]; naive rats, 50 mg/kg b.i.d. injection in NMP and Cremophor", "value": "heterogeneous failure to thrive"}, {"measurement": "RV pressures, MCT+Vehicle versus MCT+Compound 146 by ANOVA", "setting": "Sprague-Dawley rats [4]; 15 or 50 mg/kg b.i.d.", "value": "not statistically different"}, {"measurement": "RV pulse pressure, MCT+Vehicle versus MCT+Compound 146 by ANOVA", "setting": "Sprague-Dawley rats [4]; 15 or 50 mg/kg b.i.d.", "value": "statistically different"}, {"measurement": "Net RV weight increase by MCT", "setting": "Sprague-Dawley rats [4]; MCT rats", "value": "effect blunted"}, {"measurement": "Deaths/Total N", "setting": "Sprague-Dawley rats [4]; MCT rats, 15 mg/kg b.i.d. s.c.", "value": "0/8"}, {"measurement": "Deaths/Total N", "setting": "Sprague-Dawley rats [4]; MCT rats, 50 mg/kg b.i.d. s.c.", "value": "0/8"}, {"measurement": "MCT induced increase in total lung weight", "setting": "Sprague-Dawley rats [4]; MCT rats, both doses", "value": "inhibited"}, {"measurement": "RV hypertrophic response", "setting": "Sprague-Dawley rats [4]; MCT rats, both doses", "value": "significant inhibition"}, {"measurement": "RV/LVS ratio (Fulton Index), mean", "setting": "Sprague-Dawley rats [4]; MCT rats, high dose 50 mg/kg b.i.d.", "value": 0.47}, {"measurement": "right lobe dry weight / increase in structural components of the lung", "setting": "Sprague-Dawley rats [4]; MCT rats, lobe dried for 5 days", "value": "abrogated this remodeling"}, {"measurement": "RV/LVS ratio (Fulton Index), mean", "setting": "Sprague-Dawley rats [4]; MCT rats, low dose 15 mg/kg b.i.d.", "value": 0.41}, {"measurement": "Deaths/Total N", "setting": "Sprague-Dawley rats [4]; Saline-injected rats, 50 mg/kg b.i.d. s.c.", "value": "0/5"}, {"measurement": "RV pulse pressure, MCT effect compared to control rats", "setting": "Sprague-Dawley rats [4]; either dose (15 or 50 mg/kg b.i.d.)", "value": "MCT induced no significant effect compared to control rats"}, {"measurement": "RV systolic and mean pressures, MCT effect compared to control rats", "setting": "Sprague-Dawley rats [4]; either dose (15 or 50 mg/kg b.i.d.), ANOVA", "value": "MCT induced no significant effect compared to control rats"}, {"measurement": "lethalities", "setting": "Sprague-Dawley rats [4]; groups receiving any dose", "value": "no lethalities"}, {"measurement": "RV pressures, MCT-vehicle compared to MCT-Compound 146, restricted analysis", "setting": "Sprague-Dawley rats [4]; one-tailed unpaired Student's t-test, P=0.046 low dose and 0.002 high dose", "value": "significant reduction"}, {"measurement": "Inh (% of Ctl) 0.01 μM", "setting": "rat PGT; 0.01 μM compound, second part of Table 1", "value": "28.5 % of Ctl"}, {"measurement": "Inh (% of Ctl) 0.05 μM", "setting": "rat PGT; 0.05 μM compound, second part of Table 1", "value": "59.8 % of Ctl"}, {"measurement": "Inh (% of Ctl) 0.1 μM", "setting": "rat PGT; 0.1 μM compound, second part of Table 1 (Cpd 130-151)", "value": "70.4 % of Ctl"}]}]}
